The values that follow come from US10473666B2, “Dye compounds” (SFC CO., LTD., priority 2015, dated 2019).

The subject of one series is HeLa A431 cells. The experiment in a line: Photostability: fluorescence intensity over time in stained HeLa A431 cells. Type of series: cell-based. The note with it: HeLa A431 cells stained with 1.0 μM dye. On the procedure:
The fluorescence intensities of three areas A, B, and C of HeLa A431 cells stained with the compound of Formula 110 (1.0 μM) were measured at 2-sec intervals for 3500 sec.
The fluorescence intensities of four areas A, B, C, and D of HeLa A431 cells stained with the compound of Formula 98 (1.0 μM) were measured at 2-sec intervals for 3500 sec.
The fluorescence intensities of two areas A and B of HeLa A431 cells stained with Cy3B (1.0 μM) were measured at intervals of 2 s for 2000 s.

A short description of series [1]: Absorption spectra, emission spectra, molar extinction coefficients and quantum yields of the dye compounds. The series is classed as physicochemical. The note with it: Table 1; solvent DMSO. The method, then: Absorption spectra (λabs), emission spectra (λem), molar extinction coefficients (ε), and quantum yields of the compounds of Formulae 1-7 were measured and the results are shown in Table 1.
Absorption spectra (λabs), emission spectra (λem), molar extinction coefficients, and quantum yields of the compounds of Formulae 44-53 were measured and the results are shown in Table 4.
The products of the two factors (molar extinction coefficient×fluorescence quantum yield) for the inventive dye compounds were much greater than that for the comparative compound.

The subject of a further series is goat anti-mouse IgG. The experiment in a line: Absorption and fluorescence emission spectra of goat anti-mouse IgG labeled with the dye. The method, then:
Goat anti-mouse IgG was labeled with Alexa Fluor® 568 (Thermo Fisher Scientific) and the compound of Formula 1 and their absorption spectra and fluorescence emission spectra were recorded.
FIG. 1a is an absorption spectrum of goat anti-mouse IgG labeled with the compound of Formula 1, FIG. 1b is an absorption spectrum of goat anti-mouse IgG labeled with Alexa Fluor® 568, FIG. 1c is a fluorescence emission spectrum of goat anti-mouse IgG labeled with the compound of Formula 1, and FIG. 1d is a fluorescence emission spectrum of goat anti-mouse IgG labeled with Alexa Fluor® 568.
Goat anti-mouse IgG was labeled with Alexa Fluor® 594 (Thermo Fisher Scientific) and the compound of Formula 3 and their absorption spectra and fluorescence emission spectra were recorded.
FIG. 2a is an absorption spectrum of goat anti-mouse IgG labeled with the compound of Formula 3, FIG. 2b is an absorption spectrum of goat anti-mouse IgG labeled with Alexa Fluor® 594, FIG. 2c is a fluorescence emission spectrum of goat anti-mouse IgG labeled with the compound of Formula 3, and FIG. 2d is a fluorescence emission spectrum of goat anti-mouse IgG labeled with Alexa Fluor® 594.

The test system of series [2] is IgG from mouse serum (primary). The experiment in a line: FLISA plate fluorescence (bioactivity) of dye-conjugated secondary antibody on coated primary IgG. Type of series: binding. The following applies: for D/P ratio at which the dye-secondary antibody was conjugated to the primary antibody with the highest efficiency: dye-conjugated goat anti-mouse IgG on IgG from mouse serum; for Fluorescence: dye-conjugated goat anti-mouse IgG. The method, then: 1. IgG from mouse serum (primary) was dissolved to a concentration of 10 μg/ml in coating buffer.
2. 100 μl of the solution was divided into each well of a FLISA H/B black corning plate.
3. After top sealing, the plate was incubated in the dark at room temperature for 2 h.
4. Each well was washed three times with 300 μl of washing buffer.
5. 300 μl of blocking buffer was placed into each well. After top sealing, the plate was incubated in the dark at room temperature for 1 h.
6. After removal of the blocking buffer, the wells were washed three times with washing buffer.
7. 100 μl of a dye-conjugated secondary antibody (10 μg/ml) was placed into each well. After top sealing, the plate was incubated in the dark at room temperature for 1 h.
8. After removal of the solution, each well was washed three times with 200 μl of washing buffer.
9. 100 μl of PBS was placed into each sample-containing well.
10. Fluorescence was measured with a microplate reader.
The procedure of Experimental Example 4 was repeated except that the compound of Formula 3 was used.
The procedure of Experimental Example 4 was repeated except that the compound of Formula 50 was used.

Series [3] is described as follows: Absorption spectra, emission spectra, molar extinction coefficients and quantum yields of the dye compounds. Type of series: physicochemical.
Series [4] relates to mitochondria, Raw 264.7 cells. The experiment in a line: Selectivity for mitochondria: co-localization with MitoTracker Green FM in Raw 264.7 cells. The following applies: dye 1 μM. The series is classed as cell-based. The method, then:
The specific selectivity of the compound of Formula 110 for mitochondria was investigated. To this end, Raw 264.7 cells were co-localized with the compound of Formula 110 and a commercially available mitochondrial marker (MTG, 1 μM MitoTracker Green FM for mitochondria).
OPM images were acquired at 560-600 nm (Formula 110, λex=552 nm) and 470-520 nm (MTG, λex=488 nm) and are shown in FIGS. 4a and 4b, respectively. FIG. 4c is a merged image of FIGS. 4a and 4b. The Pearson's co-localization coefficient (A) was calculated using the LAS AF software. [MTG]=1μM for 30 min incubation,λex=488 nm [Formula 110]=1μM for 30 min incubation,λex=552 nm

A short description of series [5]: Characterization as pH probes: fluorescence intensity versus pH. Type of series: physicochemical. The source says: In addition, the absorption and fluorescence wavelengths of the compound of Formula 97 well match currently available laser lines (488 nm, 532 nm, and 550 nm).
That is, the compound of Formula 111 as a pH probe emitted strong fluorescence at pH 2-6 and the compound of Formula 97 as a pH probe emitted strong fluorescence at pH 8-12.

The mark [6] stands for this setting: dye-conjugated secondary antibody, plate fluorescence.
Where [7] appears, read: measured at 2-sec intervals for 3500 sec.

`CC1(C)C2=C3C=C4C5=[N+](CCC4OC3CCN2c2ccccc21)c1ccccc1C5(C)C` (centres unmarked) [Cy3B, reference compound]: the photostability entry in the series on HeLa A431 cells is listed as “poor photostability”. Besides, the “change of fluorescence intensity over time” value (from here on “change”) with HeLa A431 cells (measured at intervals of 2 s for 2000 s) is “greatly reduced for 1500 s”.
Take `CC1(CCCCCC(=O)O)C2=[N+](CCC3Oc4cc(N(CCCS(=O)(=O)O)CCCS(=O)(=O)O)ccc4C=C23)c2ccc(S(=O)(=O)[O-])cc21` (centres unmarked) [Formula 1]: the “Q.Y. (quantum yield)” value in series [1] was found to be 0.91. In series [1], this compound displayed a λabs of 584 nm. Further, the “aggregation compared with the Alexa Fluor dye” value in the series with goat anti-mouse IgG was “less aggregated than Alexa Fluor® 568”. In the series with goat anti-mouse IgG, the “fluorescence emission intensity compared with the Alexa Fluor dye” value is “higher than that of Alexa Fluor® 568”. Besides, the “D/P ratio at which the dye-secondary antibody was conjugated to the primary antibody with the highest efficiency” value in series [2] is about 4.8. In addition, the Fluorescence in series [2] (D/P ratio 2.202771) turned out to be 104.026; in series [2] (D/P ratio 4.888795) it was 127.5422; in series [2] (D/P ratio 8.141409), 95.4; in series [2] (D/P ratio 11.30465), 91.8519; in series [2] (D/P ratio 12.45994), 75.1. The “bioactivity compared with the Alexa Fluor dye” value in series [2] (setting [6]) is “better bioactivity than Alexa Fluor® 568”. In series [2] (setting [6]), the “brightness values compared with the Alexa Fluor dye” value is given as “much higher than those of Alexa Fluor® 568”. Also, the “ε (molar extinction coefficient)” value in series [3] (Table 1, solvent DMSO) is reported as 66,000 M^−1cm^−1. In addition, in series [3] (Table 1, solvent DMSO), the λem is 617 nm.
In the case of `CC1(CCCCCC(=O)O)C2=[N+](CCC3Oc4c(cc5c6c4CCCN6CCC5)C=C23)c2ccccc21` (centres unmarked) [Formula 2], in series [1], the “Q.Y. (quantum yield)” value was 0.94 and the λabs was found to be 597 nm. In addition, in series [3] (Table 1, solvent DMSO), the “ε (molar extinction coefficient)” value is listed as 71,500 M^−1cm^−1 and the λem was 623 nm.
In the case of `CC1(CCCCCC(=O)O)C2=[N+](CCC3Oc4cc5c(cc4C=C23)C(CS(=O)(=O)O)CC(C)(C)N5CCCS(=O)(=O)O)c2ccc(S(=O)(=O)[O-])cc21` (centres unmarked) [Formula 3], the “Q.Y. (quantum yield)” value in series [1] stood at 0.87. For the same compound, the λabs in series [1] worked out at 595 nm. Also, the “fluorescence emission intensity compared with the Alexa Fluor dye” value with goat anti-mouse IgG is listed as “higher than that of Alexa Fluor® 594”. For the same compound, the “D/P ratio at which the dye-secondary antibody was conjugated to the primary antibody with the highest efficiency” value in series [2] is about 3.4. Moreover, the Fluorescence in series [2] (D/P ratio 2.54) was found to be 64.89; in series [2] (D/P ratio 3.47), 83.79; in series [2] (D/P ratio 4.86), 78.61; in series [2] (D/P ratio 5.18) it was 80.28; in series [2] (D/P ratio 5.95), 68.06. Also, in series [2] (setting [6]), the “bioactivity compared with the Alexa Fluor dye” value is on record as “better bioactivity than Alexa Fluor® 594”. The “brightness values compared with the Alexa Fluor dye” value in series [2] (when the D/P ratio was ≥5) is “much higher than those of Alexa Fluor® 594”. The “ε (molar extinction coefficient)” value in series [3] (Table 1, solvent DMSO) is 64,000 M^−1cm^−1. Moreover, the λem in series [3] (Table 1, solvent DMSO) was found to be 624 nm.
For the compound `CN(CCCCCC(=O)O)c1ccc2c(c1)OC1CC[N+]3=C(C1=C2)C(C)(C)c1cc(S(=O)(=O)CC(S(=O)(=O)[O-])S(=O)(=O)O)ccc13` (centres unmarked) [Formula 4], in series [1], the “Q.Y. (quantum yield)” value is reported as 0.81 and the λabs is 584 nm. In series [3] (Table 1, solvent DMSO), the “ε (molar extinction coefficient)” value is given as 76,000 M^−1cm^−1 and the λem worked out at 614 nm.
The matching figures for `CC1(C)C2=[N+](CCC3Oc4cc5c(cc4C=C23)C(CS(=O)(=O)O)=CC(C)(C)N5CCCCCC(=O)O)c2ccc(S(=O)(=O)[O-])cc21` (centres unmarked) [Formula 5]: 0.56, 617 nm, 65,000 M^−1cm^−1 and 659 nm.
Take `CC1(C)CCN(CCCCCC(=O)O)c2ccc3c(c21)OC1CC[N+]2=C(C1=C3)C(C)(C)c1ccccc12` (centres unmarked) [Formula 6]: in series [1], the “Q.Y. (quantum yield)” value was 0.72 and the λabs is reported as 579 nm. In addition, in series [3] (Table 1, solvent DMSO), the “ε (molar extinction coefficient)” value is recorded as 12,800 M^−1cm^−1 and the λem is listed as 612 nm.
The corresponding values for `CC1(C)CCN(CCCCCC(=O)O)c2cc3c(cc21)C=C1C2=[N+](CCC1O3)c1ccccc1C2(C)C` (centres unmarked) [Formula 7] are 1.00, 584 nm, 60,000 M^−1cm^−1 and 615 nm.
For the compound `CCN(CC)c1ccc2c(c1)OC1CC[N+]3=C(C1=C2)C(C)(C)c1ccccc13` (centres unmarked) [Formula 98], in the series on HeLa A431 cells, the photostability entry is “good photostability”. Moreover, in the series on HeLa A431 cells (setting [7]), the “change” value is on record as “no substantial decreases in fluorescence intensity for 1 h”. Also, in series [3] (Table 6, solvent DMSO), the Quantum yield was determined as 0.77, the “ε (molar extinction coefficient)” value is 57,000 M^−1cm^−1, the λabs was 570 nm and the λem was 601 nm. Moreover, in series [3] (Table 6, solvent EtOH), the Quantum yield worked out at 0.78, the “ε (molar extinction coefficient)” value was 64,000 M^−1cm^−1, the λabs turned out to be 570 nm and the λem turned out to be 596 nm. In addition, in series [3] (Table 6, solvent PBS), the Quantum yield was found to be 0.51, the “ε (molar extinction coefficient)” value is 57,000 M^−1cm^−1, the λabs stood at 565 nm and the λem stood at 595 nm.
For `CNc1ccc2c(c1)OC1CC[N+]3=C(C1=C2)C(C)(C)c1ccccc13` (centres unmarked) [Formula 110], the “staining selectivity for mitochondria” value in series [4] is reported as “mitochondria were predominantly stained”. For the same compound, in series [4] (MTG 1 μM, 30 min incubation, LAS AF software), the “degree of overlapping (A), Pearson's co-localization coefficient with Mitotracker Green FM” value turned out to be 0.73. Further, in the series with HeLa A431 cells, the photostability entry is given as “good photostability”. Moreover, in the series with HeLa A431 cells (setting [7]), the “change” value is given as “no substantial decreases in fluorescence intensity for 1 h”. In series [3] (Table 6, solvent DMSO), the Quantum yield was found to be 0.86, the “ε (molar extinction coefficient)” value is listed as 37,000 M^−1cm^−1, the λabs was found to be 561 nm and the λem was found to be 597 nm. In addition, in series [3] (Table 6, solvent EtOH), the Quantum yield turned out to be 0.80, the “ε (molar extinction coefficient)” value was 50,000 M^−1cm^−1, the λabs was found to be 558 nm and the λem is listed as 584 nm. Moreover, in series [3] (Table 6, solvent PBS), the Quantum yield was determined as 0.78, the “ε (molar extinction coefficient)” value is given as 37,000 M^−1cm^−1, the λabs is reported as 550 nm and the λem amounted to 579 nm.
In the case of `CC1(C)C2=[N+](CCC3Oc4cc(N5CCN(CCCCCC(=O)O)CC5)ccc4C=C23)c2ccccc21` (centres unmarked) [Formula 111], in series [5], the “pH at which the pH probe emitted strong fluorescence” value is on record as 2-6 pH. The “fluorescence intensity under acidic conditions” value in series [5] (pH 1-6) is on record as “increased”. In addition, the “fluorescence intensity under basic conditions” value in series [5] (pH 9-12) is on record as “decreased”. For the same compound, in series [3] (Table 6, solvent PBS (pH 7.4)), the Quantum yield worked out at 0.53, the “ε (molar extinction coefficient)” value is given as 55,000 M^−1cm^−1, the λabs is given as 530 nm and the λem is 585 nm.
